# Measured values taken from patent publication US7138433B2, “Quinone-based therapeutic agent for hepatopathy” (Eisai Co., Ltd., priority 2002, dated 2006).
# What was measured:
# HepG2 cells = experiment: Invasion assay using HepG2 cells and a Matrigel chamber; type: cell-based; details: upon adding VK-II; depending on the concentration
# From the text: (§1) The action of VK-II according to the present application with regard to invasion/metastasis of hepatic cancer cells was studied in vitro. The action on invasion ability was investigated through an invasion assay using HepG2 cells and a Matrigel chamber. […] Regarding the action on the metastasis ability, the action of VK-II on the expression of extracellular matrix metalloproteinases (MMPs) was investigated using the Western blot method. […] From the above, although the data is in vitro, it can be presumed that VK-II inhibits invasion/metastasis of hepatic cancer cells.
# [1] = cited from earlier work
# [2] = test system: hepatocellular carcinoma patients after treatment; experiment: Trial Example 2: trial of VK-II in inhibiting recurrence of hepatocellular carcinoma after treatment; type: in vivo, human; details: for risk ratio for recurrence of hepatic cancer: Cox proportional hazard model, control group = 1; for time period until 50% recurrence: control group 10 months
# Method: A trial was carried out as follows with an objective of investigating the effect and safety of VK-II in inhibiting recurrence of hepatocellular carcinoma after treatment. 61 cases in which hepatocellular carcinoma was diagnosed and then after treatment therefor necrosis (or curative excision) was judged by contrast CT to have completely occurred were entered from March 1999 to March 2001, the entered cases were divided into two groups, namely a VK-II-administered group for which the end of the patient ID number was an odd number and a non-administered group (control group) for which the end of the patient ID number was an even number, and a VK-II preparation (proprietary name […], made by Eisai Co., Ltd.) was orally administered at a dose of 45 mg/day to the administered group. Contrast CT or MRI was carried out every 3 months, and a statistical analysis of the time period until recurrence was carried out. Specifically, comparison was carried out using the Kaplan-Meier method (log-rank test), and the risk ratio for recurrence was analyzed using the Cox proportional hazard model.
# [3] = test system: DCP-producing HCC cell line; details: in vitro; Hepatology 1995, 22:876-82; cited from earlier work
# [4] = test system: DCP positive hepatic cancer patients; experiment: Trial Example 1: randomized prospective controlled clinical trial of oral VK-II after hepatic cancer treatment; type: in vivo, human; details: treated group
# Method: A clinical trial (randomized prospective controlled study) was carried out as follows.
# Out of patients with hepatocellular carcinoma, ones having a serum DCP level above 60 IU/L (DCP positive hepatic cancer) were included in the trial. On the other hand, patients having portal venous invasion, and patients in which there was already VK metabolism through administration of VK or an anti-VK agent, were excluded from the trial.
# 126 hepatic cancer patients were given treatment from February 1999 to November 2001. As the hepatic cancer treatment, percutaneous cauterization therapy (RFA and/or PEIT) for HCC, treatment via the blood vessels (TAE or TAI), or surgical excision was carried out. Of the patients, 5 were excluded from the present trial.
# Next, the remaining 121 patients were randomly divided into a treated group (n=60) and an untreated group (n=61). The treated group were orally administered 45 mg/day of VK-II (proprietary name Glakay, made by Eisai Co., Ltd.) after the hepatic cancer treatment, while the untreated group were not administered VK-II.
# Follow-up tests were carried out after the hepatic cancer treatment. As the follow-up tests, ultrasonography (abdominal echography) was carried out every 3 months, a CT scan was carried out every 6 months, and the levels of the tumor markers alpha-fetoprotein and DCP were measured every one month.
# Statistical analysis was carried out on the PVI incidence rate and the survival rate for the two groups. That is, calculations were carried out using the Cox proportional hazard model, and a test was carried out using the log-rank method. The average observation period was 12±8 months.
# MMP-1 = experiment: MMP protein expression in hepatic cancer cells, Western blot; type: cell-based; details: VK-II added to hepatic cancer cells
# From the text: as §1
# MMP-3 = experiment: as above; type: cell-based; details: VK-II added to hepatic cancer cells
# From the text: as §1
compound,measurement,setting,value
"CC(C)=CCC/C(C)=C/CC/C(C)=C/CC/C(C)=C/CC1=C(C)C(=O)c2ccccc2C1=O [VK-II, 2-methyl-3-tetraprenyl-1,4-naphthoquinone]",number of cells passing through the Matrigel,HepG2 cells,dropped
same,solubility in water,[1],hardly dissolves in water
same,side effects,[2]; 45 mg/day oral,no side effects
same,risk ratio for recurrence of hepatic cancer,[2]; HCV cases only,0.210
same,risk ratio for recurrence of hepatic cancer,[2]; all cases,0.329
same,time period until 50% recurrence,[2]; HCV cases only,26 months
same,1-year cumulative recurrence rate,"[2]; HCV cases only, control group 61.5%",7.1%
same,2-year cumulative recurrence rate,"[2]; HCV cases only, control group 87.2%",37.8%
same,DCP upon recurrence,[2]; all cases of recurrence in the VK-II-administered group,negative
same,1-year cumulative recurrence rate,"[2]; all cases, 45 mg/day oral, control group 55.2%",12.5%
same,2-year cumulative recurrence rate,"[2]; all cases, 45 mg/day oral, control group 85.5%",39.6%
same,time period until 50% recurrence,[2]; all cases,26 months
same,hepatic cancer cumulative recurrence rate compared with the control group,[2]; excluding cases of local recurrence (29 vs 22 cases),statistically significantly suppressed
same,hepatic cancer cumulative recurrence rate compared with the control group,[2]; excluding cases of recurrence within 6 months (31 vs 22 cases),statistically significantly suppressed
same,cell proliferation,[3],inhibited
same,PVI incidence rate,"[4]; after 1 year, 45 mg/day oral, untreated group 23%",2%
same,survival rate,"[4]; after 2 years, 45 mg/day oral, untreated group 28% (P=0.044)",66%
same,PVI incidence rate,"[4]; after 2 years, 45 mg/day oral, untreated group 47% (P=0.018)",23%
same,DCP level in the serum after hepatic cancer treatment,"[4]; 45 mg/day oral VK-II (Glakay), for 12 months, untreated group gradually increased",remained approximately constant
same,MMP-1 protein expression,MMP-1,inhibited
same,MMP-3 protein expression,MMP-3,inhibited
